# Experimental data reported in patent publication US20130060024A1, “Compounds useful for treating neurodegenerative disorders” (SATORI PHARMACEUTICALS, INC., priority 2011, published 2013).
# Like-named read-outs stand apart in the source and are kept apart here.
# Experiments:
# Format in all cases: cell-based
# Conditions in all cases: Homo sapiens
# Aβ-42 = Aβ-42 MSD 3-PLEX ELISA, conditioned media of 2B7 cells
# Procedure: (§1) Assays were conducted to determine the ability of a Compound of Formula I to modulate […], […], and Aβ-38. Human (6E10) Ab 3-PLEX ELISA kits were purchased from Meso Scale Discovery Labs, 9328 Gaither Road, Gaithersburg, Md. 20877 (Catalog Number […]-3). Plates with capture antibodies were blocked for 1-2 hours at room temperature with 150 μL of the manufactures blocking reagent. Cultured 2B7 cells in 96 well plate with 250 μL of media per well until confluent; Prepared serial dilutions of compounds in DMSO at 100× the final desired concentration; Washed wells with 2B7 cells 1× with 250 μL of media; Diluted DMSO stocks 1:100 into media: Added 250 μL of media containing compounds (1% DMSO) to wells with 2B7 cells for 5 hours at 37° C. Diluted conditioned media: 1 part media with 1% DMSO and 1 part blocking buffer; 150 μL of the 250 μL of conditioned media were used. Seven point standard curve samples were prepared that contained Aβ-42, Aβ-40, and Aβ-38. The highest concentration of Aβ-42 and Aβ-38 was 3,000 pg/mL and the highest concentration of Aβ-40 was 10,000 pg/mL. Subsequent serial dilutions were 1:3 and the final composition of each sample was 1 part blocking buffer and 1 part cell medium containing 1% DMSO. Blocked plates are washed 5× with MSD wash buffer with a plate washer; 25 μL of detection antibody and blocker G reagent in MSD blocking solution was added; 25 μL of samples (1 part conditioned media containing 1% DMSO and 1 part MSD blocking buffer) were then added; Plates were incubated overnight at 4 degrees C. or 2 hours at room temperature. Washed wells 5× with MSD wash buffer; Added 150 μL 2×MSD read buffer; Read with MSD imager. Aβ peptide levels for each peptide were calculated from the standard curve using the MSD software provided with the MSD 2400 Imager. Percent vehicle values for each compound dosage were then calculated and fit to a 4 parameter curve generating IC50 values.
# Aβ-38 = Aβ-38 MSD 3-PLEX ELISA, conditioned media of 2B7 cells
# Procedure: as §1
# Aβ-40 = Aβ-40 MSD 3-PLEX ELISA, conditioned media of 2B7 cells
# Procedure: as §1
# [1] = 2B7 cells, 5 hours at 37° C., 1% DMSO, read-out: Aβ 42 IC50
# [2] = 2B7 cells, 5 hours at 37° C., 1% DMSO, read-out: Aβ 38 IC50
# [3] = 5 h, read-out: Aβ 42 DR IC50 Inflection
# [4] = 5 h, read-out: Aβ 38 DR IC50 Inflection
# [5] = 5 h, read-out: Aβ 40 DR IC50 Inflection
# [6] = 2B7 cells, 5 hours at 37° C., 1% DMSO, read-out: Aβ 40 IC50
Compound,IC50 (Aβ-42; [1]),IC50 (Aβ-38; [2]),IC50 (Aβ-42; [3]),IC50 (Aβ-38; [4]),IC50 (Aβ-40; [5]),IC50 (Aβ-40; [6])
CCO[C@@H]([C@H]1C[C@@H](C)[C@H]2[C@H](O1)[C@H](O)[C@@]1(C)[C@@H]3CC[C@H]4C(C)(C)[C@@H](OC(=O)NCCNS(=O)(=O)C(F)(F)F)CC[C@@]45C[C@@]35CC[C@]21C)C(C)(C)O [Compound I-1],501 to 1000 nM,1000 to 5000 nM,–,–,–,–
CCO[C@@H]([C@H]1C[C@@H](C)[C@H]2[C@H](O1)[C@H](O)[C@@]1(C)[C@@H]3CC[C@H]4C(C)(C)[C@@H](OC(=O)N(C)C5CN(C)C5)CC[C@@]45C[C@@]35CC[C@]21C)C(C)(C)O [Compound I-2],< 100 nM,100 to 500 nM,< 100 nM,< 100 nM,> 5000 nM,1000 to 5000 nM
CCO[C@@H]([C@H]1C[C@@H](C)[C@H]2[C@H](O1)[C@H](O)[C@@]1(C)[C@@H]3CC[C@H]4C(C)(C)[C@@H](OC(=O)N5CCNC(C(F)(F)F)C5)CC[C@@]45C[C@@]35CC[C@]21C)C(C)(C)O (stereo partly shown) [Compound I-3],100 to 500 nM,1000 to 5000 nM,–,–,–,–
CCO[C@@H]([C@H]1C[C@@H](C)[C@H]2[C@H](O1)[C@H](O)[C@@]1(C)[C@@H]3CC[C@H]4C(C)(C)[C@@H](OC(=O)N5CCN(C6COC6)CC5)CC[C@@]45C[C@@]35CC[C@]21C)C(C)(C)O [Compound I-4],100 to 500 nM,1000 to 5000 nM,100 to 500 nM,–,–,> 5000 nM
CCO[C@@H]([C@H]1C[C@@H](C)[C@H]2[C@H](O1)[C@H](O)[C@@]1(C)[C@@H]3CC[C@H]4C(C)(C)[C@@H](OC(=O)N5CCN(CC(=O)O)CC5)CC[C@@]45C[C@@]35CC[C@]21C)C(C)(C)O [Compound I-5],100 to 500 nM,–,100 to 500 nM,–,–,> 5000 nM
CCO[C@@H]([C@H]1C[C@@H](C)[C@H]2[C@H](O1)[C@H](O)[C@@]1(C)[C@@H]3CC[C@H]4C(C)(C)[C@@H](OC(=O)N(C)CC(=O)O)CC[C@@]45C[C@@]35CC[C@]21C)C(C)(C)O [Compound I-6],501 to 1000 nM,–,–,–,–,–
CCO[C@@H]([C@H]1C[C@@H](C)[C@H]2[C@H](O1)[C@H](O)[C@@]1(C)[C@@H]3CC[C@H]4C(C)(C)[C@@H](OC(=O)N5CCN(CCOC)CC5)CC[C@@]45C[C@@]35CC[C@]21C)C(C)(C)O [Compound I-7],100 to 500 nM,501 to 1000 nM,100 to 500 nM,–,–,–
CCO[C@@H]([C@H]1C[C@@H](C)[C@H]2[C@H](O1)[C@H](O)[C@@]1(C)[C@@H]3CC[C@H]4C(C)(C)[C@@H](OC(=O)N5CCN(C)CC5)CC[C@@]45C[C@@]35CC[C@]21C)C(C)(C)O [Compound I-8],< 100 nM,100 to 500 nM,< 100 nM,< 100 nM,> 5000 nM,1000 to 5000 nM
CCO[C@@H]([C@H]1C[C@@H](C)[C@H]2[C@H](O1)[C@H](O)[C@@]1(C)[C@@H]3CC[C@H]4C(C)(C)[C@@H](OC(=O)N5CC(NC)C5)CC[C@@]45C[C@@]35CC[C@]21C)C(C)(C)O [Compound I-9],100 to 500 nM,100 to 500 nM,100 to 500 nM,100 to 500 nM,–,1000 to 5000 nM
CCO[C@@H]([C@H]1C[C@@H](C)[C@H]2[C@H](O1)[C@H](O)[C@@]1(C)[C@@H]3CC[C@H]4C(C)(C)[C@@H](OC(=O)N5CCNCC5)CC[C@@]45C[C@@]35CC[C@]21C)C(C)(C)O [Compound I-10],< 100 nM,100 to 500 nM,–,–,–,–
CCO[C@@H]([C@H]1C[C@@H](C)[C@H]2[C@H](O1)[C@H](O)[C@@]1(C)[C@@H]3CC[C@H]4C(C)(C)[C@@H](OC(=O)NCCN(C)C)CC[C@@]45C[C@@]35CC[C@]21C)C(C)(C)O [Compound I-11],100 to 500 nM,–,100 to 500 nM,–,–,–
CCO[C@@H]([C@H]1C[C@@H](C)[C@H]2[C@H](O1)[C@H](O)[C@@]1(C)[C@@H]3CC[C@H]4C(C)(C)[C@@H](OC(=O)NCCN5CCOCC5)CC[C@@]45C[C@@]35CC[C@]21C)C(C)(C)O [Compound I-12],100 to 500 nM,1000 to 5000 nM,100 to 500 nM,–,–,> 5000 nM
CCO[C@@H]([C@H]1C[C@@H](C)[C@H]2[C@H](O1)[C@H](O)[C@@]1(C)[C@@H]3CC[C@H]4C(C)(C)[C@@H](OC(=O)NCCN5CC(OC)C5)CC[C@@]45C[C@@]35CC[C@]21C)C(C)(C)O [Compound I-13],100 to 500 nM,1000 to 5000 nM,100 to 500 nM,–,–,–
CCO[C@@H]([C@H]1C[C@@H](C)[C@H]2[C@H](O1)[C@H](O)[C@@]1(C)[C@@H]3CC[C@H]4C(C)(C)[C@@H](OC(=O)NCCN5CC(F)C5)CC[C@@]45C[C@@]35CC[C@]21C)C(C)(C)O [Compound I-14],100 to 500 nM,–,100 to 500 nM,–,–,–
CCO[C@@H]([C@H]1C[C@@H](C)[C@H]2[C@H](O1)[C@H](O)[C@@]1(C)[C@@H]3CC[C@H]4C(C)(C)[C@@H](OC(=O)NCCN5CC(O)C5)CC[C@@]45C[C@@]35CC[C@]21C)C(C)(C)O [Compound I-15],100 to 500 nM,–,100 to 500 nM,–,–,–
CCO[C@@H]([C@H]1C[C@@H](C)[C@H]2[C@H](O1)[C@H](O)[C@@]1(C)[C@@H]3CC[C@H]4C(C)(C)[C@@H](OC(=O)NCCN5CCC5)CC[C@@]45C[C@@]35CC[C@]21C)C(C)(C)O [Compound I-16],100 to 500 nM,–,100 to 500 nM,–,–,–
CCO[C@@H]([C@H]1C[C@@H](C)[C@H]2[C@H](O1)[C@H](O)[C@@]1(C)[C@@H]3CC[C@H]4C(C)(C)[C@@H](OC(=O)NCCN5CCN(C6COC6)CC5)CC[C@@]45C[C@@]35CC[C@]21C)C(C)(C)O [Compound I-17],100 to 500 nM,100 to 500 nM,100 to 500 nM,–,–,1000 to 5000 nM
CCO[C@@H]([C@H]1C[C@@H](C)[C@H]2[C@H](O1)[C@H](O)[C@@]1(C)[C@@H]3CC[C@H]4C(C)(C)[C@@H](OC(=O)NCCN5CC(F)(F)C5)CC[C@@]45C[C@@]35CC[C@]21C)C(C)(C)O [Compound I-18],100 to 500 nM,501 to 1000 nM,100 to 500 nM,–,–,> 5000 nM
CCO[C@@H]([C@H]1C[C@@H](C)[C@H]2[C@H](O1)[C@H](O)[C@@]1(C)[C@@H]3CC[C@H]4C(C)(C)[C@@H](OC(=O)NCCN5CCN(C6CCC6)CC5)CC[C@@]45C[C@@]35CC[C@]21C)C(C)(C)O [Compound I-19],100 to 500 nM,–,100 to 500 nM,–,–,–
CCO[C@@H]([C@H]1C[C@@H](C)[C@H]2[C@H](O1)[C@H](O)[C@@]1(C)[C@@H]3CC[C@H]4C(C)(C)[C@@H](OC(=O)N5CC(N6CCC6)C5)CC[C@@]45C[C@@]35CC[C@]21C)C(C)(C)O [Compound I-20],< 100 nM,100 to 500 nM,–,–,–,–
CCO[C@@H]([C@H]1C[C@@H](C)[C@H]2[C@H](O1)[C@H](O)[C@@]1(C)[C@@H]3CC[C@H]4C(C)(C)[C@@H](OC(=O)N5CC(N6CC(OC)C6)C5)CC[C@@]45C[C@@]35CC[C@]21C)C(C)(C)O [Compound I-21],100 to 500 nM,501 to 1000 nM,100 to 500 nM,–,–,–
CCO[C@@H]([C@H]1C[C@@H](C)[C@H]2[C@H](O1)[C@H](O)[C@@]1(C)[C@@H]3CC[C@H]4C(C)(C)[C@@H](OC(=O)NC5CN(C6CCC6)C5)CC[C@@]45C[C@@]35CC[C@]21C)C(C)(C)O [Compound I-22],100 to 500 nM,501 to 1000 nM,100 to 500 nM,–,–,1000 to 5000 nM
CCO[C@@H]([C@H]1C[C@@H](C)[C@H]2[C@H](O1)[C@H](O)[C@@]1(C)[C@@H]3CC[C@H]4C(C)(C)[C@@H](OC(=O)NC5CN(C6CN(C7CCC7)C6)C5)CC[C@@]45C[C@@]35CC[C@]21C)C(C)(C)O [Compound I-23],100 to 500 nM,501 to 1000 nM,–,–,–,–
CCO[C@@H]([C@H]1C[C@@H](C)[C@H]2[C@H](O1)[C@H](O)[C@@]1(C)[C@@H]3CC[C@H]4C(C)(C)[C@@H](OC(=O)NCCN5CCN(CC(F)F)CC5)CC[C@@]45C[C@@]35CC[C@]21C)C(C)(C)O [Compound I-24],100 to 500 nM,–,100 to 500 nM,–,–,1000 to 5000 nM
